# Experimental data as given in patent US20230313140A1, “METHOD FOR PREPARING T CELLS FOR ADOPTIVE T CELL THERAPY” (St. Jude Children's Research Hospital, Inc., priority 2022, published 2023).
# Experiments:
# cytosolic c-Myc = assay: Imaging of polarization of cytosolic c-Myc in activated, undivided CD8+ T cells; conditions: Dynarrestin 25 μM, Ciliobrevin D 50 μM
# Protocol: (§1) Murine CD8^+ T Lymphocytes. For CD8^+ T cell stimulation, splenocytes obtained from wild-type animals were enriched for antigen presenting cells (APCs) using CD11c MicroBeads (Miltenyi Biotec) and pulsed with 5 nM of [sequence] peptide (SEQ ID NO:1; AnaSpec Inc.) for 1 hour at 37° C. CD8^+ T cells were isolated from lymph nodes using the Dynabeads Untouched Mouse CD8 Cells Kit (Invitrogen) and overlain onto the peptide-pulsed APCs. Alternatively, CD8^+ T cells were stimulated on plate-bound anti-CD3ε (1 μg/ml, Bio X Cell), anti-CD28 (1 μg/ml, Bio X Cell), and recombinant human ICAM (0.5 μg/ml) produced in insect cells (Huppa et al. (2010) Nature 463:963-967); or by incubation with PMA (10 ng/ml, MedChemExpress) and Ionomycin (1 μM, MedChemExpress). Whenever assessment of cell division was required, CD8^+ T cells were labeled with a fluorescent dye sold under the tradename CELLTRACE® Violet (CTV) Cell Proliferation Kit (Invitrogen) at 5 μM per 1×10^7 cells for 10 minutes at 37° C. […]
# (§2) The distribution of proteins in undivided cells was analyzed using Imaris 9.5 software (Oxford Instruments).
# p-eIF4GI = assay: Imaging of polarization of p-eIF4GI in activated, undivided CD8+ T cells; conditions: Dynarrestin 25 μM, Ciliobrevin D 50 μM
# Protocol: as §1, §2
# TORC1 = assay: Imaging of polarization of TORC1 activity (phospho-mTOR) in activated, undivided CD8+ T cells; conditions: Dynarrestin 25 μM, Ciliobrevin D 50 μM
# Protocol: as §1, §2
# ribosomal protein S6 = assay: General TORC1 activity measured by phosphorylation of ribosomal protein S6; format: cell-based, mouse; conditions: activated, undivided cells treated with dynein inhibitors
# Source text: Murine CD8^+ T Lymphocytes. […] Immunofluorescence Staining and Imaging.
# Sirt1 = assay: Immunofluorescence imaging of Sirt1 distribution between dividing sister cells; conditions: silvestrol 200 nM or Hippuristanol 500 nM, last hour of activation
# Protocol: (§3) Murine CD8^+ T Lymphocytes. For CD8^+ T cell stimulation, splenocytes obtained from wild-type animals were enriched for antigen presenting cells (APCs) using CD11c MicroBeads (Miltenyi Biotec) and pulsed with 5 nM of [sequence] peptide (SEQ ID NO:1; AnaSpec Inc.) for 1 hour at 37° C. CD8^+ T cells were isolated from lymph nodes using the Dynabeads Untouched Mouse CD8 Cells Kit (Invitrogen) and overlain onto the peptide-pulsed APCs. […] Whenever assessment of cell division was required, CD8^+ T cells were labeled with a fluorescent dye sold under the tradename CELLTRACE® Violet (CTV) Cell Proliferation Kit (Invitrogen) at 5 μM per 1×10^7 cells for 10 minutes at 37° C. For in vivo stimulation, CTV-labeled CD8^+ T cells were transferred by tail vein injection of wild-type recipients. Twenty-four hours after transfer, recipients were immunized by subcutaneous injection of 50 μg of [sequence] peptide (SEQ ID NO:1) into the neck region. Donor cells were obtained from axillary and brachial lymph nodes 8 hours after immunization. CD8^+ T cells were cultured in RPMI 1640 (Gibco) supplemented with 10% (v/v) heat-inactivated fetal bovine serum (FBS), lx MEM non-essential amino acids (Gibco), 1 mM Sodium pyruvate (Gibco), 2 mM L-glutamine (Gibco), 55 μM 2-mercaptoethanol (Gibco), 50 U/ml penicillin and 50 μg/ml streptomycin (Corning) at 37° C. in 5% CO2. […]
# [1] = system: c-Myc association with RPL26 and S6; assay: STORM analysis of c-Myc translating polysomes; format: cell-based, mouse; conditions: brief treatment, 91 μM
# Protocol: Murine CD8^+ T Lymphocytes. […] Stochastic Optical Reconstruction Microscopy (STORM). […] PFA was added to the culture at a final concentration of 4% (v/v), the cell suspension was transferred into […], and fixation continued for 10 minutes at RT. During all sample preparation, cells were pelleted for 3 minutes at 2000 rpm between each buffer. […] Reactive groups were quenched in 20 mM glycine, and non-specific antibody binding was blocked in TBS+2% BSA. […] Cells were washed with TBS and incubated with the following secondary antibodies for 1 hour at RT: CF488-labeled donkey anti-rat (1:1000, Biotium), CF568-labeled donkey anti-Goat (1:1000, Biotium), and AF647-labeled donkey anti-rabbit (1:1000, Jackson ImmunoResearch). Following two washes with TBS, cells were post-fixed in 1% (v/v) PFA for 5 minutes at RT, pelleted and resuspended in 20 μl cell culture matrix sold under […] drop of the cell suspension was placed into a cryomold, overlaid with Tissue Freezing Medium (Fisher Scientific Company) and snap frozen on dry ice. […] cryosections were placed on poly-L-lysine coated #1.5 18-mm coverslips (Electron Microscopy Sciences) and affixed to 35-mm dishes (Mattek) using epoxy resin. […] At least 25 cells from two independent experiments were analyzed. […]
# [2] = system: first-division c-Myc^high CD8+ T cells; assay: Adoptive transfer and in vivo influenza infection and challenge, donor cell frequency; set-up: species or system mouse; conditions: c-Myc^high cells treated 2 hours with 200 nM after sorting, transferred into recipients; A/X-31-OVA day 0, challenge day 30; spleen
# GFP-c-Myc = format: cell-based, mouse; conditions: sorted first-division cells treated for 2 hours, 200 nM
# c-Myc = assay: Immunofluorescence imaging of c-Myc distribution in first-division sister cells; conditions: treatment immediately prior to the first division (last hour of activation); silvestrol 200 nM, Hippuristanol 500 nM
# Protocol: as §3
# [3] = system: c-Myc bound to chromatin at c-Myc binding sites; assay: CUT&RUN ChIP-seq of c-Myc bound to chromatin in first-division CD8+ T cells; format: cell-based, mouse; conditions: brief treatment of activated CD8+ T cells; 200 nM, 2 hours; chromatin immunoprecipitation
# Protocol: CHIP-Sequencing. First-division CD8^+ T cells were sorted into medium with or without 200 nM silvestrol and cultured for additional 2 hours. CUT&RUN ChIP-seq experiments were performed as previously described (Meers et al. (2019) Elife 8) with slight modifications. […] Libraries were quantified using Qubit and size distribution was determined by Agilent 4200 TapeStation analysis before 15 million paired-end sequencing was performed.
# Analysis for CHIP-seq Data. Paired-end sequencing reads were trimmed with Trim Galore (version 0.5.0) with default parameters. Reads were aligned to the reference mouse mm10 assembly using Bowtie 2 (version 2.3.5.1) (Langmead & Salzberg (2012) Nat. Methods 9:357-359) with settings—end-to-end—very-sensitive—nomixed—no-discordant-q—phred33-I 10-X 700. The resulting alignments, recorded in BAM file, were sorted, indexed, and marked for duplicates with Picard MarkDuplicate function (version 2.19.0, Broad Institute). […] C-Myc occupancy was normalized by scaling to 1 million mapped reads using BEDTools (version 2.27.1) (Quinlan & Hall (2010) Bioinformatics 26:841-842) and bedGraphToBigWig (version 377) (Kent et al. (2010) Bioinformatics 26:2204-2207) and visualized as heatmaps using deepTools plotHeatmap (version 3.2.1) (Ramirez et al. (2016) Nucl. Acids Res. 44:W160-165).
Structure (SMILES),polarization of cytosolic c-Myc (cytosolic c-Myc),polarization of p-eIF4GI (p-eIF4GI),polarization of TORC1 (TORC1),"TORC1 activity in general, phosphorylation of ribosomal protein S6 (ribosomal protein S6)",Sirt1 protein distribution between dividing sister cells (Sirt1),also measured
N#CC(=C(O)c1ccc(Cl)cc1Cl)c1nc2cc(Cl)ccc2c(=O)[nH]1 [Ciliobrevin D],abrogated the polarization,abrogated the polarization,abrogated the polarization,remained unaffected,,
CCOC(=O)c1sc(Nc2ccc(F)cc2F)nc1-c1ccc(N(CC)CC)cc1 [Dynarrestin],abrogated the polarization,abrogated the polarization,abrogated the polarization,remained unaffected,,
C[C@H]1C[C@@]2(O[C@H]3C[C@H]4[C@@H]5CC[C@H]6C[C@H](O)CC[C@]6(C)[C@H]5[C@@H](O)C[C@]4(C)[C@H]3[C@@]2(C)O)OC1(C)C [Hippuristanol],,,,,unaffected,
COc1ccc(C[C@H](N)C(=O)N[C@H]2[C@@H](O)[C@H](n3cnc4c(N(C)C)ncnc43)O[C@@H]2CO)cc1 [puromycin],,,,,,association of c-Myc with RPL26 and S6 [1]: significantly reduced
COC(=O)[C@H]1[C@@H](O)[C@@]2(O)c3c(OC)cc(O[C@@H]4O[C@@H]([C@H](O)CO)CO[C@H]4OC)cc3O[C@@]2(c2ccc(OC)cc2)[C@@H]1c1ccccc1 [silvestrol],,,,,unaffected,"frequency of donor cells on day 9 after A/PR/8-OVA challenge (FIG. 2) [2]: detected at numbers comparable to those found for sorted c-Myc^low cells; c-Myc levels in c-Myc^high cells (GFP-c-Myc MFI, FIG. 1) (GFP-c-Myc): reduce c-Myc levels in c-Myc^high cells to those observed in c-Myc^low cells; c-Myc asymmetry in first-division sister cells (c-Myc): rapid equilibration of c-Myc levels; c-Myc bound to chromatin at c-Myc binding sites [3]: greatly reduced"
